Experimental data reported in US20260200926A1, “TREM2 MODULATORS” (Muna Therapeutics ApS, priority 2022, published 2026).
Where two headings read alike, the source gives them in different places.

Target: T1, Human TREM2 (Homo sapiens, UniProt Q9NZC2)
T1 construct: expressed in transfected cells
Assay: Human TREM2 activity: cellular phosphorylation of Syk (AlphaLISA SureFire Ultra p-SYK) in HEK293/DAP12+TREM2 stable cell line
Assay type: cell-based
Conditions: for Emax: HEK293, read-out: Emax; for EC50: phospho-Syk AlphaLISA signal, HEK293/DAP12+TREM2 cells, concentration giving 50% of maximal response, read-out: EC50
How it was run: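 HEK293 cells stably co-expressing human TREM2 and DAP12 were seeded at 10,000 cells/well and used 20–24 h later. Compounds were tested at 8 concentrations (top 100 μM, 1:6 steps, 0.5% DMSO) for 30 min at 37 °C. Syk phosphorylation at Tyr525/526 was read in lysates by AlphaLISA SureFire Ultra.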

[1] = maximal response relative to reference agonist example 1B (remaining examples)

T1 sequence (Q9NZC2 19-230): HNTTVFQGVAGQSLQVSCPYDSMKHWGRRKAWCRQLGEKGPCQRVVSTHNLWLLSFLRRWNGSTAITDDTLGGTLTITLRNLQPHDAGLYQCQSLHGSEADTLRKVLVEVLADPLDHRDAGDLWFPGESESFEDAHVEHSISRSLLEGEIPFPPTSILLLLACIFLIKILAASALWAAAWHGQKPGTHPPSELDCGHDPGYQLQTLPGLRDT
T1 sequence (O43914 22-113 partner): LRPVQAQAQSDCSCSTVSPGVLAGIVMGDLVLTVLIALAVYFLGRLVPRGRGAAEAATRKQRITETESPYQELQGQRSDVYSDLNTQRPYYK

Emax [1] [%] | EC50 [nM] | Emax (maximal response relative to reference agonist human TREM2 MAB1828 (examples 1, 1A and 1B)) [%] | Structure (SMILES)
75 to 110 | 1 to 10 |  | Cc1cc([C@H]2CN(c3cc4c(=O)n(C)c(C)nc4c(-c4ccc(C(F)F)nc4)n3)CC(F)(F)O2)ccn1 (single isomer, unassigned) [Example 181B]
> 110 | 1 to 10 |  | Cc1cc([C@@H]2CN(c3cc4c(=O)n(C)c(C)nc4c(-c4ccc(F)cc4F)n3)C[C@H](C)O2)ccn1 (single isomer, unassigned) [Example 182A]
< 75 | 100 to 1000 |  | Cc1cc([C@H]2CN(c3cc4c(=O)n(C)c(C)nc4c(-c4ccc(F)cc4F)n3)C[C@@H](C)O2)ccn1 (single isomer, unassigned) [Example 182B]
75 to 110 | 1 to 10 |  | C[C@H]1CN(c2nc(-c3ccc(F)cc3F)c3nc(C(F)(F)F)n(C)c(=O)c3n2)C[C@@H](c2cnn(C3CC3)c2)O1 (single isomer, unassigned) [Example 183A]
75 to 110 | < 1 |  | C[C@@H]1CN(c2nc(-c3ccc(F)cc3F)c3nc(C(F)(F)F)n(C)c(=O)c3n2)C[C@H](c2cnn(C3CC3)c2)O1 (single isomer, unassigned) [Example 183B]
75 to 110 | 1 to 10 |  | Cc1nc2c(-c3ccc(C(F)(F)F)nc3)nc(N3C[C@@H](c4cnn(C5CC5)c4)O[C@@H](C)C3)cc2c(=O)n1C (single isomer, unassigned) [Example 184A]
< 75 | 10 to 100 |  | Cc1nc2c(-c3ccc(C(F)(F)F)nc3)nc(N3C[C@@H](C)O[C@@H](c4cnn(C5CC5)c4)C3)cc2c(=O)n1C (single isomer, unassigned) [Example 184B]
75 to 110 | 1 to 10 |  | Cn1c(C(F)(F)F)nc2c(-c3cc(F)c(F)cc3F)nc([C@@H]3CCO[C@H](c4cnn(C5CC5)c4)C3)nc2c1=O (single isomer, unassigned) [Example 186A]
< 75 | 100 to 1000 |  | Cn1c(C(F)(F)F)nc2c(-c3cc(F)c(F)cc3F)nc([C@H]3CCO[C@@H](c4cnn(C5CC5)c4)C3)nc2c1=O (single isomer, unassigned) [Example 186B]
75 to 110 | 10 to 100 |  | Cc1cc([C@@H]2CN(c3cc4c(=O)n(C)c(C(F)(F)F)nc4c(-c4ccc(F)cc4F)n3)C[C@H](C)O2)ccn1 (single isomer, unassigned) [Example 189A]
75 to 110 | 100 to 1000 |  | Cc1cc([C@H]2CN(c3cc4c(=O)n(C)c(C(F)(F)F)nc4c(-c4ccc(F)cc4F)n3)C[C@@H](C)O2)ccn1 (single isomer, unassigned) [Example 189B]
75 to 110 | 10 to 100 |  | Cc1nc2c(-c3ccc(F)cc3F)nc(N3C[C@@H](c4cnn(C5CC5)c4)O[C@@H](C)C3)cc2c(=O)n1C (single isomer, unassigned) [Example 190A]
< 75 | 100 to 1000 |  | Cc1nc2c(-c3ccc(F)cc3F)nc(N3C[C@@H](C)O[C@@H](c4cnn(C5CC5)c4)C3)cc2c(=O)n1C (single isomer, unassigned) [Example 190B]
< 75 | < 1 |  | Cc1cc([C@@H]2CN(c3nc(-c4ccc(F)cc4F)c4nc(C(F)(F)F)n(C)c(=O)c4n3)C[C@H](C)O2)ccn1 (single isomer, unassigned) [Example 191A]
75 to 110 | 1 to 10 |  | Cc1cc([C@H]2CN(c3nc(-c4ccc(F)cc4F)c4nc(C(F)(F)F)n(C)c(=O)c4n3)C[C@@H](C)O2)ccn1 (single isomer, unassigned) [Example 191B]
< 75 | 100 to 1000 |  | Cc1cc([C@@H]2CN(c3cc4c(=O)n(C)c(C)nc4c(-c4ccc(C(F)F)nc4)n3)C[C@H](C)O2)ccn1 (single isomer, unassigned) [Example 192A]
75 to 110 | 1 to 10 |  | Cc1cc([C@H]2CN(c3cc4c(=O)n(C)c(C)nc4c(-c4ccc(C(F)F)nc4)n3)C[C@@H](C)O2)ccn1 (single isomer, unassigned) [Example 192B]
75 to 110 | 1 to 10 |  | C[C@H]1CN(c2cc3c(=O)n(C)c(C(F)(F)F)nc3c(-c3ccc(F)cc3F)n2)C[C@@H](c2cnn(C3CC3)c2)O1 (single isomer, unassigned) [Example 193A]
< 75 | 10 to 100 |  | C[C@@H]1CN(c2cc3c(=O)n(C)c(C(F)(F)F)nc3c(-c3ccc(F)cc3F)n2)C[C@H](c2cnn(C3CC3)c2)O1 (single isomer, unassigned) [Example 193B]
75 to 110 | 10 to 100 |  | Cc1nc2c(-c3ccc(C(F)F)nc3)nc(N3C[C@@H](c4cnn(C5CC5)c4)O[C@@H](C)C3)cc2c(=O)n1C (single isomer, unassigned) [Example 194A]

Emax [1] [%] | EC50 [nM] | Emax (maximal response relative to reference agonist human TREM2 MAB1828 (examples 1, 1A and 1B)) [%] | Structure (SMILES)
< 75 | 100 to 1000 |  | Cc1nc2c(-c3ccc(C(F)F)nc3)nc(N3C[C@@H](C)O[C@@H](c4cnn(C5CC5)c4)C3)cc2c(=O)n1C (single isomer, unassigned) [Example 194B]
< 75 | 1 to 10 |  | Cc1nc2c(-c3ccc(C(F)(F)F)cc3F)nc(N3C[C@@H](c4cnn(C5CC5)c4)O[C@@H](C)C3)nc2c(=O)n1C (single isomer, unassigned) [Example 195A]
75 to 110 | < 1 |  | Cc1nc2c(-c3ccc(C(F)(F)F)cc3F)nc(N3C[C@@H](C)O[C@@H](c4cnn(C5CC5)c4)C3)nc2c(=O)n1C (single isomer, unassigned) [Example 195B]
75 to 110 | 1 to 10 |  | Cn1c(C(F)(F)F)nc2c(-c3ccc(F)cc3F)nc([C@@H]3CCO[C@H](c4cnn(C5CC5)c4)C3)nc2c1=O (single isomer, unassigned) [Example 196A]
< 75 | 10 to 100 |  | Cn1c(C(F)(F)F)nc2c(-c3ccc(F)cc3F)nc([C@H]3CCO[C@@H](c4cnn(C5CC5)c4)C3)nc2c1=O (single isomer, unassigned) [Example 196B]
< 75 | 10 to 100 |  | Cn1c(C(F)(F)F)nc2c(-c3ccc(F)cc3F)nc([C@@H]3CCO[C@H](c4cnn(C5CC5)c4)C3)cc2c1=O (single isomer, unassigned) [Example 197A]
< 75 | 1 to 10 |  | Cn1c(C(F)(F)F)nc2c(-c3ccc(F)cc3F)nc([C@H]3CCO[C@@H](c4cnn(C5CC5)c4)C3)cc2c1=O (single isomer, unassigned) [Example 197B]
< 75 | 10 to 100 |  | Cc1cc([C@@H]2CN(c3cc4c(=O)n(C)c(C)nc4c(-c4ccc(C(F)(F)F)nc4)n3)C[C@H](C)O2)ccn1 (single isomer, unassigned) [Example 199A]
75 to 110 | < 1 |  | Cc1cc([C@H]2CN(c3cc4c(=O)n(C)c(C)nc4c(-c4ccc(C(F)(F)F)nc4)n3)C[C@@H](C)O2)ccn1 (single isomer, unassigned) [Example 199B]
75 to 110 | < 1 |  | Cc1nc2c(-c3ccc(C#N)cc3F)nc(N3C[C@@H](c4cnn(C5CC5)c4)O[C@@H](C)C3)cc2c(=O)n1C (single isomer, unassigned) [Example 200A]
75 to 110 | 10 to 100 |  | Cc1nc2c(-c3ccc(C#N)cc3F)nc(N3C[C@@H](C)O[C@@H](c4cnn(C5CC5)c4)C3)cc2c(=O)n1C (single isomer, unassigned) [Example 200B]
< 75 | > 1000 |  | Cc1nc2c(-c3ccc(F)cc3C#N)nc(N3C[C@@H](c4cnn(C5CC5)c4)O[C@@H](C)C3)cc2c(=O)n1C (single isomer, unassigned) [Example 201A]
< 75 | > 1000 |  | Cc1nc2c(-c3ccc(F)cc3C#N)nc(N3C[C@@H](C)O[C@@H](c4cnn(C5CC5)c4)C3)cc2c(=O)n1C (single isomer, unassigned) [Example 201B]
< 75 | > 1000 |  | Cc1nc2c(-c3ccc(C(F)(F)F)cc3C#N)nc(N3C[C@@H](c4cnn(C5CC5)c4)O[C@@H](C)C3)cc2c(=O)n1C (single isomer, unassigned) [Example 202A]
< 75 | > 1000 |  | Cc1nc2c(-c3ccc(C(F)(F)F)cc3C#N)nc(N3C[C@@H](C)O[C@@H](c4cnn(C5CC5)c4)C3)cc2c(=O)n1C (single isomer, unassigned) [Example 202B]
< 75 | 100 to 1000 |  | Cc1nc2c(-c3ccc(Cl)cc3F)nc(N3CCO[C@H](c4cnn(C)c4)C3)nc2c(=O)[nH]1 (single isomer, unassigned) [Example 203A]
< 75 | 100 to 1000 |  | Cc1nc2c(-c3ccc(Cl)cc3F)nc(N3CCO[C@@H](c4cnn(C)c4)C3)nc2c(=O)[nH]1 (single isomer, unassigned) [Example 203B]
 | 10 to 100 | 75 to 110 | Cc1nc2c(-c3ccc(Cl)cc3F)nc(N3CCOC(c4cnn(C)c4)C3)nc2c(=O)n1C (centres unmarked) [Example 1, 8-(4-chloro-2-fluorophenyl)-2,3-dimethyl-6-(2-(1-methyl-1H-pyrazol-4-yl)morpholino)pyrimido[5,4-d]pyrimidin-4 (3H)-one]
75 to 110 | 1 to 10 |  | Cc1nc2c(-c3ccc(Cl)cc3F)nc(N3CCOC(c4cnn(C5CC5)c4)C3)nc2c(=O)n1C (centres unmarked) [Example 2, 8-(4-chloro-2-fluorophenyl)-6-(2-(1-cyclopropyl-1H-pyrazol-4-yl)morpholino)-2,3-dimethylpyrimido[5,4-d]pyrimidin-4 (3H)-one]
75 to 110 | 1 to 10 |  | Cc1cc(C2CN(c3nc(-c4ccc(Cl)cc4F)c4nc(C)n(C)c(=O)c4n3)CCO2)ccn1 (centres unmarked) [Example 3, 8-(4-chloro-2-fluorophenyl)-2,3-dimethyl-6-(2-(2-methylpyridin-4-yl)morpholino)pyrimido[5,4-d]pyrimidin-4 (3H)-one]
